Patent US20250027930A1, “SMALL MOLECULES FOR REPROGRAMING ANTI-TUMOR IMMUNITY OF T CELLS” (THE SCRIPPS RESEARCH INSTITUTE, priority 2021, published 2025)

Assays:
OT-1 cells [1] = assay: OT-1 cells treated with K+ or p38i; type: cell-based, mouse
From the text: We also tested two small molecules (KCl and p38i) reported in papers. (Science 2019, 363, (6434); Cancer Cell 2020, 37, (6), 818-833 e9).

P14 cells = assay: P14 splenocyte in vitro activation, re-stimulation and expansion; type: cell-based, mouse; details: for Fold of proliferation, Normalized to W/O / Tim3^−TCF-1^+ ratio of CD8^+ T cells (%): 80 mM; for Fold of proliferation, Normalized to W/O: P14 cells
OT-1 cells [2] = assay: OT-I-Tcf7GFP splenocyte screen: proliferation and Tim3−TCF-1+ ratio; type: cell-based, mouse; details: Day7; for Tim3^−TCF-1^+ ratio of CD8^+ T cells (%): w/o 2.6
Experimental: Cell number was recorded on day 3 and day 7. On day 7, cells were stained with anti-CD8a (PerCP-Cy5.5) and anti-Tim3 (BV421) antibodies for flow cytometry or plate reader analysis.
Because TCF1 expression positively correlates with T cell stemness, the greater signal of EGFP a T cell expresses, the less differentiated the T cell is. Furthermore, if the compound also facilitates T cells proliferation, there would be more T cells per well in comparison to the untreated control. Therefore, a compound that not only maintains TCF-1 expression but also facilitates T cell growth would produce the strongest green fluorescence intensity. […] GlcA stands for glucuronic acid.

B16-OVA tumor = type: in vivo, mouse; details: adoptive transfer of sugar-treated OT-1 T cells; vs untreated T cells
Experimental: Naïve splenocytes from OT-1 mice were stimulated in vitro with OVA257-264 (500 nM) and IL-2 (60 IU/mL) in the presence or absence of an added compound for 3 days at a density of 1 million/mL (100 uL/well in 96/well plate), then expanded for 4 days. On day 7, PD-1, Tim3 and TCF-1 expressions were assessed by flow cytometry by staining cells with anti-CD8a (PerCP-Cy5.5), anti-Tim3 (BV421) and anti-TCF-1 (AF488) antibodies. For adoptive transfer, 0.6M B16-OVA cells (6×10^5) were inoculated subcutaneously 3 to 5 days before transfer in C57BL/6. On the day of adoptive transfer, mice were irradiated with 5 Gy X-ray, randomized according to tumor size, and intravenously injected with 0.2-0.3M of CD8+OT-1 T cells (2×10^5) expanded under different conditions, followed by administration of 50000 IU IL-2 every 12 h for four days. In the control group, mice were injected with cell-free vehicle only. For assessment of adoptive transfer of OT-1 CD8+ T cells activated and expanded by contacting the cells with fructose, on day 9 after transfer, anti-PD-1 (100 ug/mouse) was administered to the mice that had received T cell transfer. For assessment of adoptive transfer of OT-1 CD8+ T cells activated and expanded by contacting cells with Neu5Ac, on day 14 and day 21 after transfer, anti-PD-1 (100 ug/mouse) was administered to the mice that had received T cell transfer. The tumor growth was monitored every 3 to 4 days by measuring tumor size. Percent survival was also monitored and recorded within a period of 40 days post treatment. To evaluate tumor infiltrating OT-1 T cells, 0.6M B16-OVA cells (6×10^5) were inoculated subcutaneously 3 to 5 days before transfer in C57BL/6. On the day of adoptive transfer, mice were irradiated with 5 Gy X-ray, randomized according to tumor size, and intravenously injected with 0.2-0.3M of CD8+OT-1 T cells (2×10^5) expanded under different conditions, followed by administration of 50000 IU IL-2 every 12 h for four days. Tumors were then isolated and assessed for percentage of OT-I T cells from the total CD8+ T cells and OT-1 T cell number per gram of tumor tissue. To evaluate apoptosis, Naïve OT-1 splenocytes were stimulated by OVA257-264 (500 nM) without IL-2 in the presence of absence of sugars for 5 days followed by using Annexin V Apoptosis detection kit (Biolegend). […] To evaluate other cellular characteristics, naïve OT-1 splenocytes were stimulated by OVA257-264 (500 nM) with IL-2 (60 IU/mL) in the presence or absence of sugars for 7 or 8 days. On day 7 or 8 cells were taken and analyzed by assessment of ROS, NADPH/NADP+ ratio, and GSH/GSSG ratio.

P14 CD8+ T cells = type: in vivo, mouse; details: 14 dpi LCMV-Cl13; cells treated in vitro, vs untreated
OT-I splenocytes = assay: OT-I splenocyte culture with purine/pyrimidine pathway compounds; type: cell-based, mouse; details: added together with N-Acetylneuraminic acid on day 3, analyzed day 5
Experimental: We therefore tested if purine and pyrimidine nucleotides have similar effects as N-Acetylneuraminic acid to help maintain less differentiated phenotypes of T cells during expansion. OT-I splenocytes were cultured with 500 nM […] peptide (OVA257-264) for three days at initial cell density of 1×10^6/mL to activate and expand the CD8+ T cell population. Different concentrations of the products or intermediates in purine or pyrimidine de novo synthesis pathways were added on day 3. The tested compounds include, e.g., guanosine, deoxyguanosine, adenosine, deoxyadenosine, inosine, xanthosine, orotidine, uridine, cytidine, deoxycytidine, thymidine, deoxythymidine, 5-Aminoimidazole-4-carboxamide ribonucleotide (AICAR), orotate, and dihydroorotate. The phenotype of expanded T cells were analyzed on day 5.

OT-1 CD8+ T cells = assay: OT-1 splenocyte activation and expansion, day 7 flow cytometry; type: cell-based, mouse
Experimental: Naïve splenocytes from OT-1 mice were stimulated in vitro with OVA257-264 (500 nM) and IL-2 (60 IU/mL) in the presence or absence of an added compound for 3 days at a density of 1 million/mL (100 uL/well in 96/well plate), then expanded for 4 days. On day 7, PD-1, Tim3 and TCF-1 expressions were assessed by flow cytometry by staining cells with anti-CD8a (PerCP-Cy5.5), anti-Tim3 (BV421) and anti-TCF-1 (AF488) antibodies. For adoptive transfer, 0.6M B16-OVA cells (6×10^5) were inoculated subcutaneously 3 to 5 days before transfer in C57BL/6. On the day of adoptive transfer, mice were irradiated with 5 Gy X-ray, randomized according to tumor size, and intravenously injected with 0.2-0.3M of CD8+OT-1 T cells (2×10^5) expanded under different conditions, followed by administration of 50000 IU IL-2 every 12 h for four days. In the control group, mice were injected with cell-free vehicle only. For assessment of adoptive transfer of OT-1 CD8+ T cells activated and expanded by contacting the cells with fructose, on day 9 after transfer, anti-PD-1 (100 ug/mouse) was administered to the mice that had received T cell transfer. For assessment of adoptive transfer of OT-1 CD8+ T cells activated and expanded by contacting cells with Neu5Ac, on day 14 and day 21 after transfer, anti-PD-1 (100 ug/mouse) was administered to the mice that had received T cell transfer. The tumor growth was monitored every 3 to 4 days by measuring tumor size. Percent survival was also monitored and recorded within a period of 40 days post treatment. To evaluate tumor infiltrating OT-1 T cells, 0.6M B16-OVA cells (6×10^5) were inoculated subcutaneously 3 to 5 days before transfer in C57BL/6. […] Tumors were then isolated and assessed for percentage of OT-I T cells from the total CD8+ T cells and OT-1 T cell number per gram of tumor tissue. […] On day 7 or 8 cells were taken and analyzed by assessment of ROS, NADPH/NADP+ ratio, and GSH/GSSG ratio.

[Cl-].[K+] [K^+, KCl]
Tim3−TCF-1+ ratio of OT-1 cells (in words) (OT-1 cells [1]): increased
proliferation of OT-1 cells (in words) (OT-1 cells [1]): slightly inhibit
Proliferation fold, Normalized to W/O (OT-1 cells [1]; Day 7, 40 mM, OT-1 cells): 0.87 fold
Tim3^−TCF-1^+ ratio of CD8^+ T cells (%) (OT-1 cells [1]; Day 7, 40 mM, W/O 9.5): 80.7%
slowed down T cell proliferation (P14 cells; compared to untreated T cells): 10-20%

O=C(CO)[C@@H](O)[C@H](O)[C@H](O)CO [Fructose, fructose]
Tim3^−TCF-1^+ ratio of CD8^+ T cells (%) (OT-1 cells [2]; 80 mM): 43.9%
activity at 80000 µM (OT-1 cells [2]; Mus musculus, Splenocyte, 168 h, 80 mM, OT-1 cells, read-out: Proliferation fold, Normalized to W/O): 109%
capabilities to control tumor growth (B16-OVA tumor): significantly better
Fold of proliferation, Normalized to W/O (P14 cells; Day6): 2.10 fold
Tim3^−TCF-1^+ ratio of CD8^+ T cells (%) (P14 cells; Day6, w/o 55.0): 87.9%
Fold of proliferation, Normalized to W/O (P14 cells; Day9): 2.94 fold
Tim3^−TCF-1^+ ratio of CD8^+ T cells (%) (P14 cells; Day9, w/o 3.5): 48.9%
percentages and total numbers of expanded virus-specific P14 CD8+ T cells in the spleen and liver (P14 CD8+ T cells): significantly higher

Nc1nc2c(ncn2[C@@H]2O[C@H](CO)[C@@H](O)[C@H]2O)c(=O)[nH]1 [guanosine]
cell proliferation (OT-I splenocytes): without significant impact on cell proliferation

O=C[C@H](O)[C@@H](O)[C@H](O)[C@H](O)C(=O)O [GlcA, glucuronic acid]
Tim3^−TCF-1^+ ratio of CD8^+ T cells (%) (OT-1 cells [2]; 60 mM): 65.3%
activity at 60000 µM (OT-1 cells [2]; Mus musculus, Splenocyte, 168 h, 60 mM, OT-1 cells, read-out: Proliferation fold, Normalized to W/O): 97%

O=C[C@H](O)[C@@H](O)[C@@H](O)[C@H](O)CO [Galactose, galactose]
Fold of proliferation, Normalized to W/O (P14 cells; Day6): 1.59 fold
Tim3^−TCF-1^+ ratio of CD8^+ T cells (%) (P14 cells; Day6, w/o 55.0): 88.9%
Fold of proliferation, Normalized to W/O (P14 cells; Day9): 1.87 fold
Tim3^−TCF-1^+ ratio of CD8^+ T cells (%) (P14 cells; Day9, w/o 3.5): 37.4%
T cell proliferation (OT-1 CD8+ T cells; 80 mM, OT-1 cells): significantly suppressed
percentage of Tim3−TCF-1+ CD8+ T cells (in words) (OT-1 CD8+ T cells; OT-1 cells day 7, compared with fructose or sucrose): increased the percentage of Tim3−TCF-1+ CD8+ T cells but at a lower level
